# Test results from patent publication US7834007B2, “CGRP antagonists” (Bristol-Myers Squibb Company, priority 2005, dated 2010).
# Molecular target: T1, CGRP receptor (Homo sapiens, UniProt O60894+Q16602)
# T1 construct: endogenous in cells; host or cells: SK-N-MC cells (membrane homogenate)
# Assay: CGRP radioligand binding assay ([125I]-CGRP displacement, SK-N-MC cell homogenate)
# Conditions: displacement of 50% of [125I]-CGRP binding, room temperature 2 h
# Experimental: CGRP radioligand binding assay. Tissue Culture. SK-N-MC cells were grown at 37° C. in 5% CO2 as a monolayer in medium consisting of MEM with Earle's salts and L-glutamine (Gibco) supplemented with 10% fetal bovine serum (Gibco).
# Cell Pellets. The cells were rinsed twice with phosphate-buffered saline (155 mM NaCl, 3.3 mM Na2HPO4, 1.1 mM KH2PO4, pH 7.4), and incubated for 5-10 min. at 4° C. in hypotonic lysis buffer consisting of 10 mM Tris (pH 7.4) and 5 mM EDTA. The cells were transferred from plates to polypropylene tubes (16×100 mm) and homogenized using a polytron. Homogenates were centrifuged at 32,000×g for 30 min. The pellets were resuspended in cold hypotonic lysis buffer with 0.1% mammalian protease inhibitor cocktail (Sigma) and assayed for protein concentration. The SK-N-MC homogenate was then aliquoted and stored at −80° C. until needed.
# Binding Assay. The compounds of invention were solubilized and carried through serial dilutions using 100% DMSO. Aliquots from the compound serial dilutions were further diluted 25 fold into assay buffer (50 mM Tris-Cl pH 7.5, 5 mM MgCl2, 0.005% Triton X-100) and transferred (volume 50 μl) into 96 well assay plates. [^125I]-CGRP (Amersham Biosciences) was diluted to 60 pM in assay buffer and a volume of 50 μl was added to each well. SK-N-MC pellets were thawed, diluted in assay buffer with fresh 0.1% mammalian protease inhibitor cocktail (Sigma), and homogenized again. SK-N-MC homogenate (5 μg/well) was added in a volume of 100 μl. The assay plates were then incubated at room temperature for 2 h. Assays were stopped by addition of excess cold wash buffer (20 mM Tris-Cl pH 7.5, 0.1% BSA) immediately followed by filtration over glass fiber filters (Whatman GF/B) previously soaked in 0.5% PEI. Non-specific binding was defined with 1 μM beta-CGRP. Protein bound radioctivity was determined using a gamma or scintillation counter. The IC50 was defined as the concentration of a compound of invention required to displace 50% of radioligand binding. Results are tabulated in Table 1 as follows: 0.01 nM≦A≦10 nM; 10 nM<B≦100 nM; 100 nM<C≦1000 nM; D>1000 nM.
# T1 sequence (Q16602 23-461): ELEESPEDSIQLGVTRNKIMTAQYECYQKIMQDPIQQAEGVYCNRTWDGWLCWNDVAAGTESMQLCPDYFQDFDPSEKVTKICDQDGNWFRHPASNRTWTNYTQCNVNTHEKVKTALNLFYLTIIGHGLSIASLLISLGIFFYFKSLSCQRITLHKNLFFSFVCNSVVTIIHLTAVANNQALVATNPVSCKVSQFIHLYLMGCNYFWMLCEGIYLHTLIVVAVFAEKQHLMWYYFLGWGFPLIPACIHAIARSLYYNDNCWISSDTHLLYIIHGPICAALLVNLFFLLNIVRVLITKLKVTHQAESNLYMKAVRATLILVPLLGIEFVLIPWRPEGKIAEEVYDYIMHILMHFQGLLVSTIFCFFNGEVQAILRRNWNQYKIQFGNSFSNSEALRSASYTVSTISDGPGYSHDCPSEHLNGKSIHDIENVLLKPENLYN
# T1 sequence (O60894 27-148): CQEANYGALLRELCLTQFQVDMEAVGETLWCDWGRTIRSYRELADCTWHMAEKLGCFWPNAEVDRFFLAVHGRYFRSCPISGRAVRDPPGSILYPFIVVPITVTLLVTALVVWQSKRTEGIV
row,IC50,Compound
1,0.01 to 10 nM,"Cc1cc(C[C@@H](NC(=O)N2CCC(c3cc4cccc(F)c4[nH]c3=O)CC2)C(=O)N[C@@H](CCCCN)C(=O)N2CCN(c3ccncc3)CC2)cc2cn[nH]c12 [Example 6, N-((R)-1-((S)-6-amino-1-oxo-1-(4-(pyridin-4-yl)piperazin-1-yl)hexan-2-ylamino)-3-(7-methyl-1H-indazol-5-yl)-1-oxopropan-2-yl)-4-(8-fluoro-2-oxo-1,2-dihydroquinolin-3-yl)piperidine-1-carboxamide]"
2,0.01 to 10 nM,"Cc1cc(C[C@@H](NC(=O)N2CCC(c3cc4cccnc4[nH]c3=O)CC2)C(=O)N[C@@H](CCCCN)C(=O)N2CCN(c3ccncc3)CC2)cc2cn[nH]c12 [Example 7, N-((R)-1-((S)-6-amino-1-oxo-1-(4-(pyridin-4-yl)piperazin-1-yl)hexan-2-ylamino)-3-(7-methyl-1H-indazol-5-yl)-1-oxopropan-2-yl)-4-(2-oxo-1,2-dihydro-1,8-naphthyridin-3-yl)piperidine-1-carboxamide]"
3,0.01 to 10 nM,"Cc1cc(C[C@@H](NC(=O)N2CCC(c3cc4ccccc4[nH]c3=O)CC2)C(=O)N[C@@H](CCCCNC(=O)OC(C)(C)C)C(=O)N2CCN(c3ccncc3)CC2)cc2oc(=O)[nH]c12 [Example 8, tert-Butyl (S)-5-((R)-3-(4-methyl-2-oxo-2,3-dihydrobenzo[d]oxazol-6-yl)-2-(4-(2-oxo-1,2-dihydroquinolin-3-yl)piperidine-1-carboxamido)propanamido)-6-oxo-6-(4-(pyridin-4-yl)piperazin-1-yl)hexylcarbamate]"
4,0.01 to 10 nM,"Cc1cc(C[C@@H](NC(=O)N2CCC(N3Cc4cccc(F)c4NC3=O)CC2)C(=O)N[C@@H](CCCCNC(=O)OC(C)(C)C)C(=O)N2CCN(c3ccncc3)CC2)cc2nn[nH]c12 [Example 9, tert-Butyl (S)-5-((R)-2-(4-(8-fluoro-2-oxo-1,2-dihydroquinazolin-3(4H)-yl)piperidine-1-carboxamido)-3-(7-methyl-1H-benzo[d][, 2,3]triazol-5-yl)propanamido)-6-oxo-6-(4-(pyridin-4-yl)piperazin-1-yl)hexylcarbamate]"

# The remaining lines, values behind:
row,Compound,IC50
1,"Cc1cc(C[C@@H](NC(=O)N2CCC(c3cc4ccccc4[nH]c3=O)CC2)C(=O)N[C@@H](CCCCN)C(=O)N2CCN(c3ccncc3)CC2)cc2cn[nH]c12 [Example 2, N-((R)-1-((S)-6-amino-1-oxo-1-(4-(pyridin-4-yl)piperazin-1-yl)hexan-2-ylamino)-3-(7-methyl-1H-indazol-5-yl)-1-oxopropan-2-yl)-4-(2-oxo-1,2-dihydroquinolin-3-yl)piperidine-1-carboxamide]",0.01 to 10 nM
2,"Cc1cc(C[C@@H](NC(=O)N2CCC(N3Cc4ccccc4NC3=O)CC2)C(=O)N[C@@H](CCCCNC(=O)OC(C)(C)C)C(=O)N2CCN(c3ccncc3)CC2)cc2cn[nH]c12 [Example 3, tert-Butyl (S)-5-((R)-3-(7-methyl-1H-indazol-5-yl)-2-(4-(2-oxo-1,2-dihydroquinazolin-3(4H)-yl)piperidine-1-carboxamido)propanamido)-6-oxo-6-(4-(pyridin-4-yl)piperazin-1-yl)hexylcarbamate]",0.01 to 10 nM
3,"Cc1cc(C[C@@H](NC(=O)N2CCC(N3Cc4ccccc4NC3=O)CC2)C(=O)N[C@@H](CCCCN)C(=O)N2CCN(c3ccncc3)CC2)cc2cn[nH]c12 [Example 4, N-((R)-1-((S)-6-Amino-1-oxo-1-(4-(pyridin-4-yl)piperazin-1-yl)hexan-2-ylamino)-3-(7-methyl-1H-indazol-5-yl)-1-oxopropan-2-yl)-4-(2-oxo-1,2-dihydroquinazolin-3(4H)-yl)piperidine-1-carboxamide]",0.01 to 10 nM
4,"Cc1cc(C[C@@H](NC(=O)N2CCC(c3cc4ccccc4[nH]c3=O)CC2)C(=O)N[C@@H](CCCCN)C(=O)N2CCC(N3CCCCC3)CC2)cc2cn[nH]c12 [Example 5, N-((R)-1-((S)-6-amino-1-oxo-1-(4-(piperidin-1-yl)piperidin-1-yl)hexan-2-ylamino)-3-(7-methyl-1H-indazol-5-yl)-1-oxopropan-2-yl)-4-(2-oxo-1,2-dihydroquinolin-3-yl)piperidine-1-carboxamide]",0.01 to 10 nM
